Assay results as given in PMC10856196 (Molecules, 2024).

Tests used:
[1] = target: T1, human MOP receptor (Opioid Receptor Mu 1) (Homo sapiens, UniProt P35372); test: Tango β-arrestin recruitment in U2OS cells, antagonist mode against DAMGO EC80, two concentrations only; type: cell-based; settings: read-out: % Emax at 10 μM (relative to β-funaltrexamine)
T1 construct: gene OPRM1; human MOP receptor with linked TEV protease site (Tango OPRM1-bla U2OS)

[2] = target: T1, human MOP receptor (Opioid Receptor Mu 1); test: Tango β-arrestin recruitment in U2OS cells, antagonist mode against DAMGO EC80; reference antagonist; type: cell-based

T1 sequence (P35372 whole entry): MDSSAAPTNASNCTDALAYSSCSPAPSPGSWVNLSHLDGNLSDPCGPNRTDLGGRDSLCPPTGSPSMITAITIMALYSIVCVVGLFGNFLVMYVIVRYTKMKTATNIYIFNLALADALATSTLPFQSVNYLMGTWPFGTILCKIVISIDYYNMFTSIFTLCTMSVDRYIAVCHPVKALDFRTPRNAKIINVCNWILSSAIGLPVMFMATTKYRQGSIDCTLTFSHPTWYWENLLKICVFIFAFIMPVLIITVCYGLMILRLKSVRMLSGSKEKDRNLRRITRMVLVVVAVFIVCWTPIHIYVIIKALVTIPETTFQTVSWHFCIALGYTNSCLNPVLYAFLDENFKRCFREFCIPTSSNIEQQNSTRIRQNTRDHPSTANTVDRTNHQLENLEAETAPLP

Compound | Emax at 10 µM [1] [%] | Emax at 10 µM [2] [%]
Cc1ccc(N2CCN=C2NC(=O)NC(C)CCc2ccc(F)cc2)cc1 (centres unmarked) [7i, 1-[1-(4-methylphenyl)imidazolin-2-yl]-3-[4-(4-fluorophenyl)but-2-yl]urea] | 48 | 
COC(=O)/C=C/C(=O)N[C@@H]1CC[C@@]2(O)[C@H]3Cc4ccc(O)c5c4[C@@]2(CCN3CC2CC2)[C@H]1O5 [β-Funaltrexamine] |  | 100
